SMILES strings stand for the structures. pIC50: −log10 of the molar value.

For this assay, the target named is T1, IRAK4 (Homo sapiens, UniProt Q9NWZ3).
T1 construct: His (N); TEV cleavage site (N)
T1 sequence (Q9NWZ3 1-460): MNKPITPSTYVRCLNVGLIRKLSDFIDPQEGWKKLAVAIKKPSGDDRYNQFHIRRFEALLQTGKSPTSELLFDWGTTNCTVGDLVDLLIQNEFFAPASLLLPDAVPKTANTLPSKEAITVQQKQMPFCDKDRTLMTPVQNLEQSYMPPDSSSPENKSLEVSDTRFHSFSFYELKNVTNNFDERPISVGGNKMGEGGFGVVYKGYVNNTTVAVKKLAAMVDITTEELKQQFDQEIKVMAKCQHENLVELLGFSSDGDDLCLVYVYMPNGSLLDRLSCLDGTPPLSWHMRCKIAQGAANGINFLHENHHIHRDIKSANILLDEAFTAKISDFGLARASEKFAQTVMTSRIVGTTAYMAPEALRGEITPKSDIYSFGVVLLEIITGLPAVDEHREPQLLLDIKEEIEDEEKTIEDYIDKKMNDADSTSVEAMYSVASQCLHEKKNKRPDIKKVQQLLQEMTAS
Description: IRAK4 Enzymatic Assay. The following applies: His-TEV-IRAK4 20 ng/well, ATP 2 μM, STK1-biotin peptide 300 nM, 3 hours at 30° C., FlashPlate radioactivity. The assay is classed as biochemical. An outline of the steps: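 Radiometric FlashPlate readout: biotin-STK1 substrate (300 nM) captured on streptavidin after EDTA stop and washes. Reaction used His-TEV-IRAK4 (20 ng/well), 2 μM [^33P]-spiked ATP and compound (1 nM-20 μM), incubated 3 h at 30 °C in 50 mM HEPES pH 7.0, 10 mM MgCl2, 5 mM MnCl2, 2 mM DTT.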
Broadly, the pIC50 is the negative decadic logarithm of the IC50, by convention in mol/L. Take `CC(=O)N1CC[C@H](n2cc(-c3cnc(-c4cccc(-c5cnn(C)c5)c4)nc3)cn2)[C@@H](O)C1` [Example 225, 1-[(3S,4S)-3-Hydroxy-4-(4-{2-[3-(1-methyl-1H-pyrazol-4-yl)-phenyl]-pyrimidin-5-yl}-pyrazol-1-yl)-piperidin-1-yl]-ethanone]: the pIC50 was 6.00 to 7.00. For `Cn1cc(-c2cccc(-c3ncc(-c4cnn([C@H]5CC[C@H](C(=O)NCC(C)(C)O)CC5)c4)cn3)c2)cn1` [Example 227, trans-4-(4-{2-[3-(1-Methyl-1H-pyrazol-4-yl)-phenyl]-pyrimidin-5-yl}-pyrazol-1-yl)-cyclohexanecarboxylic acid (2-hydroxy-2-methyl-propyl)-amide], the pIC50 is > 7.00. For the compound `CC(O)CCNC(=O)[C@H]1CC[C@H](n2cc(-c3cnc(-c4cccc(-c5cnn(C)c5)c4)nc3)cn2)CC1` (stereo partly drawn) [Example 228, trans-4-(4-{2-[3-(1-Methyl-1H-pyrazol-4-yl)-phenyl]-pyrimidin-5-yl}-pyrazol-1-yl)-cyclohexanecarboxylic acid (3-hydroxy-butyl)-amide], the pIC50 is > 7.00. Regarding `Cc1cc(-c2cccc(-c3ncc(-c4cnn([C@H]5CC[C@H](C(=O)N(C)C)CC5)c4)cn3)c2)ccn1` [Example 229, Trans-4-(4-{2-[3-(2-Methyl-pyridin-4-yl)-phenyl]-pyrimidin-5-yl}-pyrazol-1-yl)-cyclohexanecarboxylic acid dimethylamide], the pIC50 is 6.00 to 7.00. Take `Cn1cc(-c2cccc(-c3ncc(-c4cnn([C@H]5CC[C@H](C(=O)NCC#N)CC5)c4)cn3)c2)cn1` [Example 230, trans-4-(4-{2-[3-(1-Methyl-1H-pyrazol-4-yl)-phenyl]-pyrimidin-5-yl}-pyrazol-1-yl)-cyclohexanecarboxylic acid cyanomethyl-amide]: the pIC50 was > 7.00.

Take `Cn1cc(-c2cccc(-c3ncc(-c4cnn([C@H]5C=C[C@@H](O)C5)c4)cn3)c2)cn1` [Example 231, (1S,4R)-4-[4-[2-[3-(1-methylpyrazol-4-yl)phenyl]pyrimidin-5-yl]pyrazol-1-yl]cyclopent-2-en-1-ol]: the negative logarithm of the IC50 (pIC50) was 6.00 to 7.00. The same measure for `CN(C)C[C@H]1CC[C@H](n2cc(-c3cnc(-c4cccc(-c5cnn(C)c5)c4)nc3)cn2)CC1` [Example 232, Trans-dimethyl-[4-(4-{2-[3-(1-methyl-1H-pyrazol-4-yl)-phenyl]-pyrimidin-5-yl}-pyrazol-1-yl)-cyclohexylmethyl]-amine]: > 7.00; for `CN(C)C(=O)[C@H]1CC[C@H](n2cc(-c3cnc(-c4cccc(-c5ccnnc5)c4)nc3)cn2)CC1` [Example 233, Trans-4-{4-[2-(3-Pyridazin-4-yl-phenyl)-pyrimidin-5-yl]-pyrazol-1-yl}-cyclohexanecarboxylic acid dimethylamide]: 6.00 to 7.00; for `CN(C)C(=O)[C@H]1CC[C@H](n2cc(-c3cnc(-c4cccc(-c5ccc(Cl)nn5)c4)nc3)cn2)CC1` [Example 234, Trans-4-(4-{2-[3-(6-Chloro-pyridazin-3-yl)-phenyl]-pyrimidin-5-yl}-pyrazol-1-yl)-cyclohexanecarboxylic acid dimethylamide]: 5.30 to 6.00. The result for `Cc1ccc(-c2cccc(-c3ncc(-c4cnn([C@H]5CC[C@H](C(=O)N(C)C)CC5)c4)cn3)c2)nn1` [Example 237, Trans-4-(4-{2-[3-(6-Methyl-pyridazin-3-yl)-phenyl]-pyrimidin-5-yl}-pyrazol-1-yl)-cyclohexanecarboxylic acid dimethylamide] reads 5.30 to 6.00; that for `Cn1cc(-c2cccc(-c3ncc(-c4cnn([C@H]5CC[C@H](CO)CC5)c4)cn3)c2)cn1` [Example 238, Trans-[4-(4-{2-[3-(1-Methyl-1H-pyrazol-4-yl)-phenyl]-pyrimidin-5-yl}-pyrazol-1-yl)-cyclohexyl]-methanol], > 7.00; that for `CN(C)C(=O)[C@H]1CC[C@H](n2cc(-c3cnc(-c4cccc(-c5ccc(N)nn5)c4)nc3)cn2)CC1` [Example 239, Trans-4-(4-{2-[3-(6-Amino-pyridazin-3-yl)-phenyl]-pyrimidin-5-yl}-pyrazol-1-yl)-cyclohexanecarboxylic acid dimethylamide], 6.00 to 7.00.

With `Cn1cc(-c2cccc(-c3ncc(-c4cnn([C@H]5CC[C@H](C(=O)NCC(O)CO)CC5)c4)cn3)c2)cn1` (stereo partly drawn) [Example 242, Trans-4-(4-{2-[3-(1-Methyl-1H-pyrazol-4-yl)-phenyl]-pyrimidin-5-yl}-pyrazol-1-yl)-cyclohexanecarboxylic acid (2,3-dihydroxy-propyl)-amide], the negative logarithm of the IC50 (pIC50) was > 7.00.

With `C[C@@H]1C[C@H](n2cc(-c3cnc(-c4cccc(-c5cnn(C)c5)c4)nc3)cn2)CCN1` [Example 243, 5-[1-((2R,4R)-2-Methyl-piperidin-4-yl)-1H-pyrazol-4-yl]-2-[3-(1-methyl-1H-pyrazol-4-yl)-phenyl]-pyrimidine formic acid], the negative-log IC50 (pIC50) was 6.00 to 7.00. As to `Cn1cc(-c2cccc(-c3ncc(-c4cnn([C@H]5CC[C@H](C(=O)N6C[C@H](O)[C@@H](O)C6)CC5)c4)cn3)c2)cn1` [Example 244, ((3S,4S)-3,4-Dihydroxy-pyrrolidin-1-yl)-[4-(4-{2-[3-(1-methyl-1H-pyrazol-4-yl)-phenyl]-pyrimidin-5-yl}-pyrazol-1-yl)-cyclohexyl]-methanone], the pIC50 was > 7.00. Consider `C[C@H]1C[C@@H](n2cc(-c3cnc(-c4cccc(-c5cnn(C)c5)c4)nc3)cn2)CCN1` [Example 246, 5-[1-((2S,4S)-2-Methyl-piperidin-4-yl)-1H-pyrazol-4-yl]-2-[3-(1-methyl-1H-pyrazol-4-yl)-phenyl]-pyrimidine], for which the negative-log IC50 (pIC50) is > 7.00. For `Cc1cc(-c2cccc(-c3ncc(-c4cnn([C@H]5CC[C@H](O)CC5)c4)cn3)c2)cnn1` [Example 247, trans-4-(4-{2-[3-(6-Methyl-pyridazin-4-yl)-phenyl]-pyrimidin-5-yl}-pyrazol-1-yl)-cyclohexanol], the negative-log IC50 (pIC50) is 6.00 to 7.00.

Regarding `CC(=O)N1CC[C@H](n2cc(-c3cnc(-c4cccc(-c5cnn(C)c5)c4)nc3)cn2)C[C@@H]1C` [Example 248, 1-[(2S,4S)-2-Methyl-4-(4-{2-[3-(1-methyl-1H-pyrazol-4-yl)-phenyl]-pyrimidin-5-yl}-pyrazol-1-yl)-piperidin-1-yl]-ethanone], the negative logarithm of the IC50 (pIC50) was > 7.00. With `CC(=O)N1CC[C@@H](n2cc(-c3cnc(-c4cccc(-c5cnn(C)c5)c4)nc3)cn2)C[C@H]1C` [Example 249, 1-[(2R,4R)-2-Methyl-4-(4-{2-[3-(1-methyl-1H-pyrazol-4-yl)-phenyl]-pyrimidin-5-yl}-pyrazol-1-yl)-piperidin-1-yl]-ethanone], the negative-log IC50 (pIC50) was 6.00 to 7.00.

For `Cn1cc(-c2cccc(-c3ncc(-c4cnn([C@H]5CC[C@]6(CCC(=O)N6)CC5)c4)cn3)c2)cn1` [Example 250, cis-8-(4-{2-[3-(1-Methyl-1H-pyrazol-4-yl)-phenyl]-pyrimidin-5-yl}-pyrazol-1-yl)-1-aza-spiro[4.5]decan-2-one], the pIC50 is > 7.00. The same measure for `CO[C@H]1CC[C@@H](n2cc(-c3cnc(-c4cccc(-c5cnn(C)c5)c4)nc3)cn2)CC1` [Example 252, Cis-5-[1-(4-Methoxy-cyclohexyl)-1H-pyrazol-4-yl]-2-[3-(1-methyl-1H-pyrazol-4-yl)-phenyl]-pyrimidine]: > 7.00; for `CO[C@H]1CC[C@H](n2cc(-c3cnc(-c4cccc(-c5cnn(C)c5)c4)nc3)cn2)CC1` [Example 253, trans-5-[1-(4-Methoxy-cyclohexyl)-1H-pyrazol-4-yl]-2-[3-(1-methyl-1H-pyrazol-4-yl)-phenyl]-pyrimidine]: > 7.00; for `Cn1cc(-c2cccc(-c3ncc(-c4cnn([C@H]5CC[C@H](N6CCOCC6=O)CC5)c4)cn3)c2)cn1` [Example 254, 4-[4-(4-{2-[3-(1-Methyl-1H-pyrazol-4-yl)-phenyl]-pyrimidin-5-yl}-pyrazol-1-yl)-cyclohexyl]-morpholin-3-one]: > 7.00. As for `Cn1cc(-c2cccc(-c3ncc(-c4cnn([C@H]5CC[C@H](N6CCOC6=O)CC5)c4)cn3)c2)cn1` [Example 255, 3-[4-(4-{2-[3-(1-Methyl-1H-pyrazol-4-yl)-phenyl]-pyrimidin-5-yl}-pyrazol-1-yl)-cyclohexyl]-oxazolidin-2-one], the pIC50 was 6.00 to 7.00. The same measure for `Cc1cc(-c2cccc(-c3ncc(-c4cnn([C@H]5CC[C@H](CO)CC5)c4)cn3)c2)cnn1` [Example 256, Trans-[4-(4-{2-[3-(6-Methyl-pyridazin-4-yl)-phenyl]-pyrimidin-5-yl}-pyrazol-1-yl)-cyclohexyl]-methanol]: > 7.00; for `Cn1cc(-c2cccc(-c3ncc(-c4cnn([C@H]5CC[C@](O)(CO)CC5)c4)cn3)c2)cn1` [Example 258, Cis-1-Hydroxymethyl-4-(4-{2-[3-(1-methyl-1H-pyrazol-4-yl)-phenyl]-pyrimidin-5-yl}-pyrazol-1-yl)-cyclohexanol]: > 7.00. The same measure for `Cn1cc(-c2cccc(-c3ncc(-c4cnn(C5CCNCC5(F)F)c4)cn3)c2)cn1` (stereo not drawn) [Example 259, 5-[1-(3,3-Difluoro-piperidin-4-yl)-1H-pyrazol-4-yl]-2-[3-(1-methyl-1H-pyrazol-4-yl)-phenyl]-pyrimidine]: 6.00 to 7.00.

The record behind these values is patent US9216991B2 (Ares Trading S.A., priority 2012, dated 2015).
